Data on five compounds can be found in ChEMBL document CHEMBL5113527, “First-in-Class Hydrazide-Based HDAC6 Selective Inhibitor with Potent Oral Anti-Inflammatory Activity by Attenuating NLRP3 Inflammasome Activation” (J Med Chem, 2022).

Data set [1] is described as follows: AUC(0 to infinity) in CD-1 mouse at 3 mg/kg, iv measured after 0.083 to 24 hrs by LC-MS/MS analysis. The class given is ADME, organism-based. More on the design: dose 3 mg/kg, time upper 24 hrs, time lower 0.083 hrs, route iv. Conditions: in vivo.
Data set [2] is described as follows: Cmax in CD-1 mouse at 30 mg/kg, po measured after 0.083 to 24 hrs by LC-MS/MS analysis. In kind it is ADME, organism-based. More on the design: time upper 24 hrs, time lower 0.083 hrs, dose 30 mg/kg, route po. Conditions: in vivo.
The nature of data set [3]: Cmax in CD-1 mouse at 3 mg/kg, iv measured after 0.083 to 24 hrs by LC-MS/MS analysis. Further details: time upper 24 hrs, time lower 0.083 hrs, dose 3 mg/kg, route iv. Conditions: in vivo. The class given is ADME, organism-based.
The nature of data set [4]: Inhibition of HDAC11(unknown origin) preincubated for 1 hr followed by substrate addition and measured after 2 hrs by fluorescence based microplate reader analysis. More on the design: species or system Homo sapiens.
Data set [5] can be described thus: AUC(0 to infinity) in CD-1 mouse at 30 mg/kg, po measured after 0.083 to 24 hrs by LC-MS/MS analysis. The class given is ADME, organism-based. Further details: dose 30 mg/kg, time upper 24 hrs, time lower 0.083 hrs, route po. The settings on record: in vivo.
For data set [6], the system named is J774.A1. In words: Inhibition of HDAC6/dynein interaction in mouse J774.A1 cells measured after 8 hrs by co-immunoprecipitation based Western blotting analysis. The class given is cell-based.
Data set [7] concerns the target Histone deacetylase 3 (Homo sapiens, UniProt O15379). The data set is described as follows: Inhibition of HDAC3 (unknown origin).
Data set [8] has as its target T1, Histone deacetylase 1 (Homo sapiens, UniProt Q13547). The data set is described as follows: Inhibition of HDAC1 (unknown origin).
In data set [9] the target is Histone deacetylase 2 (Homo sapiens, UniProt Q92769). In words: Inhibition of HDAC2 (unknown origin).
Sequence of Histone deacetylase 2 (Q92769 whole entry): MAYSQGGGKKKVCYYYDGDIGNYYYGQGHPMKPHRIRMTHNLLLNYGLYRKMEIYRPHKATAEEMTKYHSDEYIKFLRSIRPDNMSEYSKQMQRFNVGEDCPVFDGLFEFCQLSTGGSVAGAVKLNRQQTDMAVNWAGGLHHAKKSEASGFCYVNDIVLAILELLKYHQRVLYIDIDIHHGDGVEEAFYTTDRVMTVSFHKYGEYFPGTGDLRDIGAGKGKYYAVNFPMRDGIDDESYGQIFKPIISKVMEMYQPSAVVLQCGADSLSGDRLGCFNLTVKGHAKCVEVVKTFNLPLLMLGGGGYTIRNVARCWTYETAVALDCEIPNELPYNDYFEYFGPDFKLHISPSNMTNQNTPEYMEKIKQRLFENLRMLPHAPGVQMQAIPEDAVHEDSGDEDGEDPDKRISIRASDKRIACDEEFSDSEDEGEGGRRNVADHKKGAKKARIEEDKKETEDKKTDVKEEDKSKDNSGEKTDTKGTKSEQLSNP
For data set [10], the system named is J774.A1. In words: Inhibition of NLRP3 inflammasome activation in mouse J774.A1 cells assessed as cleavage of pro-caspase 1 to p20 measured at 20 microM after […] by Western blot analysis. The class given is functional, cell-based. The settings on record: DDE = dose-dependent effect. (A western blot detects proteins with antibodies after separation by electrophoresis.)

Data set [11] relates to J774.A1. The data set is described as follows: Inhibition of NLRP3 inflammasome activation in mouse J774.A1 cells assessed as cleavage of pro-caspase 1 to p20 measured at 5 to 20 microM after […] by Western blot analysis. In kind it is functional, cell-based. Conditions: dose 5-20 µM.
Data set [12] deals with T1, Histone deacetylase 1. In words: Inhibition of recombinant HDAC1 (unknown origin) using Boc-Lys(acetyl)-AMC as substrate preincubated for 1 hr followed by substrate addition and measured after 2 hrs by fluorescence based microplate reader analysis.

The structures appear in SMILES notation. The source made the active and inactive calls. No cut-off for these calls is given here.

T1 sequence (Q13547 whole entry): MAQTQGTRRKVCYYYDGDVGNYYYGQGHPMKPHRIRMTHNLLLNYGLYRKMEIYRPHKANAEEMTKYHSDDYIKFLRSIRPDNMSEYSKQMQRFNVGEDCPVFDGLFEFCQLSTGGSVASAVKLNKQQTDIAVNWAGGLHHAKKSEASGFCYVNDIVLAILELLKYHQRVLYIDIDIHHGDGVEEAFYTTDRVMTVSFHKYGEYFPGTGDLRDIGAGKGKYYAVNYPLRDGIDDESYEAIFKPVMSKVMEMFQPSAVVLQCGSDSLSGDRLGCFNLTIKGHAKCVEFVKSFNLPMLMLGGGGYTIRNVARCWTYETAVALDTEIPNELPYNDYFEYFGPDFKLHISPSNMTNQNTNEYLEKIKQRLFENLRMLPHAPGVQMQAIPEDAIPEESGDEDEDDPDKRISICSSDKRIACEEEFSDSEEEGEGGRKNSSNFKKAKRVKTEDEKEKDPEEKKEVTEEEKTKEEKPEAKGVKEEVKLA
Sequence of Histone deacetylase 3 (O15379 whole entry): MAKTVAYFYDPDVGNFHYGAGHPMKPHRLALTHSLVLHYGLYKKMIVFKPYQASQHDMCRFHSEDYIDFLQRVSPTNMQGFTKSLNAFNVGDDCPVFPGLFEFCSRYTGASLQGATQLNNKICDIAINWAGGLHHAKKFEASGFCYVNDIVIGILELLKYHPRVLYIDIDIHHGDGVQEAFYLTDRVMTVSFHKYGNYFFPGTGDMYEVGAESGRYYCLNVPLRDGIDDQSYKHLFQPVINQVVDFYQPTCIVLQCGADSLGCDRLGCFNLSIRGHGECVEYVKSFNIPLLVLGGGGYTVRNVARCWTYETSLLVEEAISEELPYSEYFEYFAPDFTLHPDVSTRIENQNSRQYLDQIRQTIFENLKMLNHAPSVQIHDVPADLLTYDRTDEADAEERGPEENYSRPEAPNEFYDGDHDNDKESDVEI

As a reminder, the AUC is the area under the concentration-time curve, a measure of exposure. Read a low AUC as less exposure. For orientation: Cmax means the maximum level reached in the sampled fluid or tissue. As a reminder, the IC50 is the concentration needed to halve the response being measured. For `CN1CCc2c(c3ccccc3n2Cc2ccc(C(=O)NO)cc2)C1` [TUBASTATIN A], the AUC came to 227 ng·h/mL in data set [1] and 134 ng·h/mL in data set [5]. For the same compound, the Cmax came to 135 ng/mL in data set [2] and 1240 ng/mL in [3]. The compound also came in with an IC50 in data set [4] of over 5 µM. Besides, in [6], the inhibition entry is “Active”.

Regarding `O=C(NO)c1ccc(CC(=O)N(CCO)c2ccccc2)cc1`, the IC50 was determined as 2.08 µM in [7], 0.842 µM in [8] and 2.21 µM in [9].

`CNS(=O)(=O)c1ccc(CCNC(=O)c2cc(Cl)ccc2OC)cc1`: the inhibition entry in data set [10] was “Dde”. Further, the outcome in data set [11] was Active.

As for `O=C(CS)NCCCCNc1c(Cl)cc(Cl)c2cccnc12`, the IC50 in data set [8] and in [12] was 6.68 µM in each case.

For `O=C(NO)c1ccc(CN2CCCc3ccccc32)cc1`, the IC50 came to 29.5 µM in data set [7] and 32.8 µM in [9].
